Calls of active or inactive are those of the source. No cut-off for these calls is given here.
What was measured:
Trypanosoma cruzi [1] = assay: (§1) Antitrypanosomal activity against Trypanosoma cruzi K98 bloodstream form infected in C3H/HeNk mouse assessed as effect on heart rate duration at 30 mg/kg/day, po administered via gavage for 30 consecutive days starting from 90 days post infection and measured at 120 to 170 days post infection in presence of benznidazole by electrocardiographic analysis; assay type: functional, organism-based
Trypanosoma cruzi [2] = assay: as §1, with “rate” for “rate duration”; assay type: functional, organism-based
Trypanosoma cruzi [3] = assay: as §1, with “QT interval” for “heart rate duration”; assay type: functional, organism-based
Trypanosoma cruzi [4] = assay: as §1, with “PR interval” for “heart rate duration”; assay type: functional, organism-based
Trypanosoma cruzi [5] = assay: as §1, with “RR interval” for “heart rate duration”; assay type: functional, organism-based
Trypanosoma cruzi [6] = assay: as §1, with “change in QRS morphology” for “effect on heart rate duration”, “at” for “at 120 to”, “analysis (reference value: 25 %)” for “analysis”; assay type: functional
Trypanosoma cruzi [7] = assay: as §1, with “change in QRS morphology” for “effect on heart rate duration”, “120” for “120 to 170”, “analysis (reference value: 25 %)” for “analysis”; assay type: functional
Trypanosoma cruzi [8] = assay: as §1, with “reduction in parasite burden in cardiac muscle” for “effect on heart rate duration”, “180” for “120 to 170”, “qRT-PCR” for “electrocardiographic”; assay type: functional, organism-based
Trypanosoma cruzi [9] = assay: as §1, with “reduction in parasite burden in skeletal muscle” for “effect on heart rate duration”, “180” for “120 to 170”, “qRT-PCR” for “electrocardiographic”; assay type: functional, organism-based
Vero = assay: Cytotoxicity against African green monkey Vero cells at 0.5 to 20 uM after 72 hrs by propidium iodide staining based flow cytometric analysis; assay type: cell-based; details: chlorocebus sabaeus
Trypanosoma cruzi [10] = assay: as §1, with “reduction in parasite burden in blood” for “effect on heart rate duration”, “180” for “120 to 170”, “qRT-PCR” for “electrocardiographic”; assay type: functional, organism-based
Trypanosoma cruzi [11] = assay: as §1, with “reduction in cardiac tissue inflammation” for “effect on heart rate duration”, “180” for “120 to 170”, “hematoxylin and eosin staining based assay” for “electrocardiographic analysis”; assay type: functional, organism-based
Trypanosoma cruzi [12] = assay: Antitrypanosomal activity against Trypanosoma cruzi K98 bloodstream form infected in C3H/HeNk mouse assessed as adipocytes replacement in skeletal muscle by measuring number of adipocyte at 30 mg/kg/day, po administered via gavage for 30 consecutive days starting from 90 days post infection and measured at 180 days post infection in presence of benznidazole by hematoxylin and eosin staining based …; assay type: functional
[13] = Toxicity in C3H/HeNk mouse infected with Trypanosoma cruzi K98 bloodstream form assessed as body weight gain at 30 mg/kg/day, po administered via gavage for 30 consecutive days starting from 90 days post infection measured up to 120 days post infection in presence of benznidazole; assay type: organism-based; details: in vivo
Trypanosoma cruzi [14] = assay: (§2) Antitrypanosomal activity against Trypanosoma cruzi K98 bloodstream form infected in C3H/HeNk mouse assessed as reduction in cardiac tissue inflammation at 15 mg/kg/day, po administered via gavage for 30 consecutive days starting from 90 days post infection and measured at 180 days post infection in presence of benznidazole by hematoxylin and eosin staining based assay; assay type: functional, organism-based
Trypanosoma cruzi [15] = assay: as §2, with “parasite burden in skeletal muscle” for “cardiac tissue inflammation”, “qRT-PCR analysis” for “hematoxylin and eosin staining based assay”; assay type: functional, organism-based
Trypanosoma cruzi [16] = assay: (§3) Antitrypanosomal activity against Trypanosoma cruzi K98 bloodstream form infected in C3H/HeNk mouse assessed as reduction in parasite burden in cardiac muscle at 15 mg/kg/day, po administered via gavage for 30 consecutive days starting from 90 days post infection and measured at 180 days post infection in presence of benznidazole by qRT-PCR analysis; assay type: functional, organism-based
Trypanosoma cruzi [17] = assay: as §1, with “at 15” for “at 30”; assay type: functional, organism-based
Trypanosoma cruzi [18] = assay: as §1, with “rate” for “rate duration”, “at 15” for “at 30”; assay type: functional, organism-based
Trypanosoma cruzi [19] = assay: as §1, with “on QT interval” for “on heart rate duration”, “at 15” for “at 30”; assay type: functional, organism-based
Trypanosoma cruzi [20] = assay: as §1, with “on PR interval” for “on heart rate duration”, “at 15” for “at 30”; assay type: functional, organism-based
Trypanosoma cruzi [21] = assay: as §1, with “on RR interval” for “on heart rate duration”, “at 15” for “at 30”; assay type: functional, organism-based
Trypanosoma cruzi [22] = assay: as §1, with “as change in QRS morphology” for “as effect on heart rate duration”, “at 15” for “at 30”, “at” for “at 120 to”, “analysis (reference value: 25 %)” for “analysis”; assay type: functional
Trypanosoma cruzi [23] = assay: as §1, with “as change in QRS morphology” for “as effect on heart rate duration”, “at 15” for “at 30”, “120” for “120 to 170”, “analysis (reference value: 25 %)” for “analysis”; assay type: functional
Trypanosoma cruzi [24] = assay: as §3, with “blood” for “cardiac muscle”; assay type: functional, organism-based
Trypanosoma cruzi [25] = assay: Antitrypanosomal activity against Trypanosoma cruzi K98 bloodstream form infected in C3H/HeNk mouse assessed as adipocytes replacement in skeletal muscle by measuring number of adipocyte at 15 mg/kg/day, po administered via gavage for 30 consecutive days starting from 90 days post infection and measured at 180 days post infection in presence of benznidazole by hematoxylin and eosin staining based …; assay type: functional
[26] = Toxicity in C3H/HeNk mouse infected with Trypanosoma cruzi K98 bloodstream form assessed as body weight gain at 15 mg/kg/day, po administered via gavage for 30 consecutive days starting from 90 days post infection measured up to 120 days post infection in presence of benznidazole; assay type: organism-based; details: in vivo
Trypanosoma cruzi [27] = assay: (§4) Antitrypanosomal activity against Trypanosoma cruzi K98 bloodstream form infected in C3H/HeNk mouse assessed as change in QRS morphology at 30 mg/kg/day, po administered via gavage for 30 consecutive days starting from 90 days post infection and measured at 120 days post infection by electrocardiographic analysis (reference value: 25 %); assay type: functional
Trypanosoma cruzi [28] = assay: as §2, with “30 to 75” for “15”, “infection” for “infection in presence of benznidazole”; assay type: functional, organism-based
[29] = Toxicity in C3H/HeNk mouse infected with Trypanosoma cruzi K98 bloodstream form assessed as decrease in body weight at 30 mg/kg/day, po administered via gavage for 30 consecutive days starting from 90 days post infection measured at 150 days post infection; assay type: organism-based; details: in vivo
[30] = Toxicity in C3H/HeNk mouse infected with Trypanosoma cruzi K98 bloodstream form assessed as decrease in body weight at 30 mg/kg/day, po administered via gavage for 30 consecutive days starting from 90 days post infection measured at 150 days post infection in presence of benznidazole; assay type: organism-based; details: in vivo
[31] = Toxicity in C3H/HeNk mouse infected with Trypanosoma cruzi K98 bloodstream form assessed as decrease in body weight at 15 mg/kg/day, po administered via gavage for 30 consecutive days starting from 90 days post infection measured at 150 days post infection in presence of benznidazole; assay type: organism-based; details: in vivo
Trypanosoma cruzi [32] = assay: as §3, with “skeletal” for “cardiac”, “30 to 75” for “15”, “infection” for “infection in presence of benznidazole”; assay type: functional, organism-based
Trypanosoma cruzi [33] = assay: as §3, with “30 to 75” for “15”, “infection” for “infection in presence of benznidazole”; assay type: functional, organism-based
[34] = Toxicity in C3H/HeNk mouse infected with Trypanosoma cruzi K98 bloodstream form assessed as decrease in body weight at 75 mg/kg/day, po administered via gavage for 30 consecutive days starting from 90 days post infection measured at 150 days post infection; assay type: organism-based; details: in vivo
Trypanosoma cruzi [35] = assay: as §4, with “at 75” for “at 30”; assay type: functional
Trypanosoma cruzi [36] = assay: as §4, with “170” for “120”; assay type: functional
Trypanosoma cruzi [37] = assay: as §4, with “as” for “as change in”, “at 75” for “at 30”, “at 170” for “at 120”; assay type: functional
Trypanosoma cruzi [38] = assay: (§5) Antitrypanosomal activity against Trypanosoma cruzi K98 bloodstream form infected in C3H/HeNk mouse assessed as effect on RR interval at 30 to 75 mg/kg/day, po administered via gavage for 30 consecutive days starting from 90 days post infection and measured at 120 to 170 days post infection by electrocardiographic analysis; assay type: functional, organism-based
Trypanosoma cruzi [39] = assay: as §5, with “PR” for “RR”; assay type: functional, organism-based
Trypanosoma cruzi [40] = assay: as §5, with “QT” for “RR”; assay type: functional, organism-based
Trypanosoma cruzi [41] = assay: as §5, with “heart rate” for “RR interval”; assay type: functional, organism-based
Trypanosoma cruzi [42] = assay: as §1, with “at 30 to 75 mg/kg/day, po” for “at 30 mg/kg/day, po”, “post infection by electrocardiographic” for “post infection in presence of benznidazole by electrocardiographic”; assay type: functional, organism-based
Trypanosoma cruzi [43] = assay: as §3, with “blood” for “cardiac muscle”, “30 to 75” for “15”, “infection” for “infection in presence of benznidazole”; assay type: functional, organism-based
Trypanosoma cruzi [44] = assay: as §2, with “skeletal” for “cardiac”, “75” for “15”, “infection” for “infection in presence of benznidazole”; assay type: functional, organism-based
[45] = Toxicity in C3H/HeNk mouse infected with Trypanosoma cruzi K98 bloodstream form assessed as body weight gain at 75 mg/kg/day, po administered via gavage for 30 consecutive days starting from 90 days post infection measured up to 120 days post infection; assay type: organism-based; details: in vivo
[46] = Toxicity in C3H/HeNk mouse infected with Trypanosoma cruzi K98 bloodstream form assessed as body weight gain at 30 mg/kg/day, po administered via gavage for 30 consecutive days starting from 90 days post infection measured up to 120 days post infection; assay type: organism-based; details: in vivo

## CC(C)/N=c1\cc2n(-c3ccc(Cl)cc3)c3ccccc3nc-2cc1Nc1ccc(Cl)cc1 [CLOFAZIMINE]
Trypanosoma cruzi [1]
  Activity: inactive
Trypanosoma cruzi [2]
  Activity: inactive
Trypanosoma cruzi [3]
  Activity: inactive
Trypanosoma cruzi [4]
  Activity: inactive
Trypanosoma cruzi [5]
  Activity: inactive
Trypanosoma cruzi [6]
  Activity: 0%
Trypanosoma cruzi [7]
  Activity: 0%
Trypanosoma cruzi [8]
  Activity: inactive
Trypanosoma cruzi [9]
  Activity: Active
Vero
  Activity: Non-Toxic
Trypanosoma cruzi [10]
  Activity: Active
Trypanosoma cruzi [11]
  Activity: inactive
Trypanosoma cruzi [12]
  Activity: 1 - 3
[13]
  Activity: Non-Toxic

## COC(=O)C1=C(C)NC(C)=C(C(=O)O[C@@H]2CCCN(Cc3ccccc3)C2)[C@@H]1c1cccc([N+](=O)[O-])c1.Cl
Trypanosoma cruzi [14]
  Activity: Active
Trypanosoma cruzi [15]
  Activity: Active
Trypanosoma cruzi [16]
  Activity: inactive
Trypanosoma cruzi [17]
  Activity: inactive
Trypanosoma cruzi [18]
  Activity: inactive
Trypanosoma cruzi [19]
  Activity: inactive
Trypanosoma cruzi [20]
  Activity: inactive
Trypanosoma cruzi [21]
  Activity: inactive
Trypanosoma cruzi [22]
  Activity: 50%
Trypanosoma cruzi [23]
  Activity: 50%
Vero
  Activity: Non-Toxic
Trypanosoma cruzi [24]
  Activity: Active
Trypanosoma cruzi [25]
  Activity: 1 - 3
[26]
  Activity: Non-Toxic

## O=C(Cn1ccnc1[N+](=O)[O-])NCc1ccccc1 [BENZNIDAZOLE]
Trypanosoma cruzi [27]
  Activity: 0%
Trypanosoma cruzi [28]
  Activity: Active
[29]
  Activity: Non-Toxic
[30]
  Activity: Non-Toxic
[31]
  Activity: Non-Toxic
Trypanosoma cruzi [32]
  Activity: Active
Trypanosoma cruzi [33]
  Activity: Active
[34]
  Activity: Toxic
Trypanosoma cruzi [35]
  Activity: 0%
Trypanosoma cruzi [36]
  Activity: 0%
Trypanosoma cruzi [37]
  Activity: 80%
Trypanosoma cruzi [38]
  Activity: inactive
Trypanosoma cruzi [39]
  Activity: inactive
Trypanosoma cruzi [40]
  Activity: inactive
Trypanosoma cruzi [41]
  Activity: inactive
Trypanosoma cruzi [42]
  Activity: inactive
Vero
  Activity: Non-Toxic
Trypanosoma cruzi [43]
  Activity: Active
Trypanosoma cruzi [44]
  Activity: inactive
[45]
  Activity: Non-Toxic
[46]
  Activity: Non-Toxic
